Earlier results as cited in PMC4855509 (Photochemistry and photobiology, 2014).

carboxy-tetramethylrhodamine [TMR]
triplet state quantum yield: 0.001–0.003
